# Laboratory results from patent publication US8815249B2 (priority 1999, dated 2014).
# Entries after “also recorded” stand apart in the source; their conditions may differ. Read-outs that look alike come from different tables or passages of the source. Non-standard residues stand in square brackets, D forms with d. Ava = NCCCCC(=O)O
# Experiments:
# [1] = system: PGCC(95-104) epitope peptide; set-up: species or system C3H/HeJ mice; conditions: mouse, in vivo
# [2] = system: total splenic cells from DR4-IE Tg mice; assay: IFN-γ ELISPOT recall response, total splenic cells, Ii-Key/gp100 hybrids; assay type: in vivo; conditions: specificity control
# Description: Immunizations. DR4-IE Tg mice were immunized subcutaneously at the base of the tail with 40 nmole or 60 nmole of Ii-Key/gp100 MHC class II hybrid or epitope-only peptides, dissolved in saline and emulsified with an equal volume of either IFA or CFA. The synthetic phosphorothioate-modified CpG ODN 1826, 5′ TCC […] CTG ACGTT 3′ (SEQ ID NO.: 906) immunostimulatory nucleotide (CpG motif underlined) was purchased from Oligos Etc. (Wilsonville, Oreg.). DR4-IE Tg mice were vaccinated s.c. with 60 nmole of designated immunogen in an emulsion with IFA and 60 μg CpG. […]
# ELISPOT assays. […] Digitalized images of spots were analyzed with a Series 1 Immunospot Analyzer and Immunospot 1.7e software (Cellular Technology Limited, Cleveland, Ohio). Criteria for spot size, circularity and color density were determined by comparing control and experimental wells. […] Only areas meeting the specified criteria were counted as spots. Mean and standard deviations were calculated for all assays. […]
# Structure-activity rules identified in study. The stimulation of splenic mononuclear lymphocytes from HLA-DR4-IE Tg mice immunized with, respectively, with each of the peptides of Table 1.2 with complete Freund's adjuvant (CFA), was determined in an ELISPOT assay for IFN-γ, IL-4 and IL-2. […]
# MHC Class II molecules = conditions: cited from earlier work
# [3] = system: purified splenic CD4+ Th cells; set-up: species or system DR4-IE Tg mice; conditions: mouse, in vivo, sc
# [4] = system: tumor cells expressing CEA; conditions: cited from earlier work
# [5] = system: HIV gp160(843-855) peptide; assay type: in vivo; conditions: B10.A (5R) mice, peptides in saline solution, serum day 35
# Experimental: An ELISA assay for antibody responses following immunization with the experimental peptides indicated above was performed as follows. Fifty microliters (μl) of a solution of the coating peptide at 2 μg/well in 0.1 M carbonate buffer, pH 9.5 was added to each well of a 96-well Nunc-immunoplate (#442404) for an overnight incubation at 4° C. After aspiration, 250 μl of phosphate-buffer saline solution containing 3% fetal bovine serum (assay diluent) was added to each well for 2 hr at RT. After washing three times with assay diluent, 50 μl of 20-times diluted mouse serum in 1:3 serial dilution in assay diluent was added to each well for 2 hr at RT. After washing three times with assay diluent, 50 μl of 1 ÿg/ml biotinylated goat anti-mouse IgG1 or IgG2a was added to each well and incubated for 1 hr at RT. After washing three times with assay diluent, 50 μl of streptavidin-horse radish peroxidase conjugate (1:1000) was added to each well and incubated for 30 min at RT. After washing three times with assay diluent, 100 μl of tetramethylbenzidine/H2O2 solution (Pharmingen 264KK) was added to each well for 15 min in the dark at room temperature. The reaction was stopped with 100 μl 1N H2SO4 in each well and the absorbance was read immediately at 450 nm.
# B10.A (5R) mice (H-2^k/b) were immunized with 20 nmole of peptides in 50 μl phosphate-buffered saline solution, intramuscularly in right and left rear legs on days 1 and 2, respectively. On day 14 the mice were boosted intramuscularly with 40 nmole of peptides in 200 μl Hank's balanced salts solution intramuscularly in a rear leg. On day 30 the mice were boosted intravenously with 40 nmole peptides dissolved in Hank's balanced salts solution (HBSS). On day 35 the mice were sacrificed and serum samples were assayed for antibody titers against the HIV gp160(843-855) peptide.
# splenic T cells [6] = assay type: in vivo; conditions: C3H/HeJ mice, spleen cells day 35 re-stimulated with HIV gp160(843-855) peptide, triplicate wells
# Experimental: An ELISPOT assay for IFN-γ cytokine responses was performed in order to titer more exactly splenic T lymphocyte subset responses to immunization with Ii-Key-ava-gp160(843-855) or gp160(843-855). The assay was performed as follows. A solution of the cytokine-specific capture antibody (100 μl at 6 μg/ml in phosphate-buffered saline solution, pH 7.2) was added to each well of a 96-well Immunospot plate (M200) for an overnight incubation at 4° C. After aspiration, phosphate-buffer saline solution 200 μl containing 10% fetal bovine serum and 1% penicillin-streptomycin-glutamine (mouse medium) was added to each well for 2 hr at RT. After washing four times with 1% Tween-20 in phosphate-buffered saline solution (wash buffer I), 100 μl of single cell suspensions from the spleens of immunized mice at 10^6 cells/well were re-stimulated with 100 μl of peptide-epitope at 5 μg/well in mouse medium and incubated for 20-40 hr at 37° C., 5% CO2. After washing twice with phosphate-buffered saline solution (wash buffer II) and four times with wash buffer I, 100 μl of 2 ÿg/ml biotinylated anti-mouse IFN-γ in 1× phosphate buffer saline with 10% fetal bovine serum (dilution buffer) was added to each well for 2 hr at RT. After washing five times with wash buffer I, 100 il of streptavidin-horse radish peroxidase conjugate (1:500) in dilution buffer was added to each well for 1 hr at RT. After washing four times with wash buffer I and two times with wash buffer II, 100 μl of the 3-amino-9-ethylcarbazole/H2O2 substrate (Pharmingen 551951) was added and incubated for 30-60 min in the dark at RT. The reaction was stopped by washing three times with 200 μl of deionized water. ELISPOT data analysis was performed by using the Immunospot 1.7e software ([…]). […] Additional counting parameters for spot size and circularity were applied to gate out speckles caused by non-specific antibody binding. Each spot represents a single cell secreting IFN-γ.
# C3H/HeJ(H-2^k) mice were immunized with 40 nmole of peptides (50 μl) emulsified with equal volume of incomplete Freund's adjuvant (IFA), subcutaneously at the base of the tail. On day 13 the mice were boosted subcutaneously at the base of the tail with 40 nmole of peptides (50 μl) emulsified with equal amount of incomplete Freund's adjuvant (IFA). On day 31, the mice were boosted intravenously with 40 nmole peptides dissolved in 100 μl Hank's balanced salts solution (HBSS). On day 35, the mice were sacrificed and single cell suspensions from spleens were assayed for IFN-γ responses to HIV gp160(843-855) peptide.
# Number is the mean number of spots (and standard deviation) in triplicate wells and Size is the mean spot size in mm^2 (and standard deviation). Ii-Key/gp160(844-855) has one ava spacer (Ii-key-ava-gp160(844-855)).
# splenic T cells [7] = system: splenic T cells; set-up: species or system B10(A) 5R mice; conditions: mouse, in vivo
# [8] = system: HLA alleles of the A2 supertype (A2.2, A2.3, A2.6 and A6802); conditions: cited from earlier work
substance,measurement,setting,value
Ac-LRMK-ava-IAYLKQATAK-NH2 (Ac-LRMK[Ava]IAYLKQATAK-NH2; SMILES CC[C@H](C)[C@H](NC(=O)CCCCNC(=O)[C@H](CCCCN)NC(=O)[C@H](CCSC)NC(=O)[C@H](CCCNC(=N)N)NC(=O)[C@H](CC(C)C)NC(C)=O)C(=O)N[C@@H](C)C(=O)N[C@@H](Cc1ccc(O)cc1)C(=O)N[C@@H](CC(C)C)C(=O)N[C@@H](CCCCN)C(=O)N[C@@H](CCC(N)=O)C(=O)N[C@@H](C)C(=O)N[C@H](C(=O)N[C@@H](C)C(=O)N[C@@H](CCCCN)C(N)=O)[C@@H](C)O) [Ii-Key/PGCC],antibody titers against PGCC epitope,[1],Significantly greater antibody titers
GVGSPYVSRLLGICL [HER-2/neu (776-790) epitope],spots on in vitro stimulation with non-specific DR4 restricted epitope,[2]; immunization in CFA,Less than 10 spots/well
same,spots on stimulation with non-specific HLA-DR4-restricted epitope,"[2]; b664 CFA, b669 CpG in IFA",non-significant immune response; also recorded: three to six spots
LRMKLPK (printed: Leu-Arg-Met-Lys-Leu-Pro-Lys),activity of Ii-Key peptides in presentation of antigenic peptides,MHC Class II molecules,significantly greater activity
RQLYPEWTEAQRL [Peptide A],IFN-γ spots,[3],491 spots
QYSWFVNGTF [9.5.4],CTL induction,[4],elicited CTL lines that lysed tumor cells
LRMK,activity of Ii-Key peptides in presentation of antigenic peptides,MHC Class II molecules,half-maximal activity
LRMKLPKPPKPVSQMR [Ii(77-92)],activity of Ii-Key peptides in presentation of antigenic peptides,MHC Class II molecules,enhanced presentation of antigenic peptides
Ac-LRMK-AYRAIRHIPR-NH2 (Ac-LRMKAYRAIRHIPR-NH2) [gp160(843-855)],"Antibody induction, ELISA against HIV gp160(843-855) peptide",[5]; Dilution^−1 20,0.052
same,"Antibody induction, ELISA against HIV gp160(843-855) peptide",[5]; Dilution^−1 60,0.023
same,"Antibody induction, ELISA against HIV gp160(843-855) peptide",[5]; Dilution^−1 180,0.000
same,"Antibody induction, ELISA against HIV gp160(843-855) peptide",[5]; Dilution^−1 540,−0.005
same,Number (mean number of IFN-γ ELISPOT spots and standard deviation),splenic T cells [6],5 (+/−3.6)
same,Size (mean spot size and standard deviation),splenic T cells [6],0.019 (+/−0.01) mm^2
same,Percentage of cells CD3^+/IFN-γ^+,splenic T cells [7],2.05%
same,Percentage of cells CD4^+,splenic T cells [7],31.03%
same,Percentage of cells CD4^+/IFN-γ^+,splenic T cells [7],0.94%
HLFYSWYK [9.5.6],CTL induction,[4],elicited CTL lines that lysed tumor cells
Ac-LRMK-ava-YRAIRHIPR-NH2 (Ac-LRMK[Ava]YRAIRHIPR-NH2; SMILES CC[C@H](C)[C@H](NC(=O)[C@H](C)NC(=O)[C@H](CCCNC(=N)N)NC(=O)[C@H](Cc1ccc(O)cc1)NC(=O)CCCCNC(=O)[C@H](CCCCN)NC(=O)[C@H](CCSC)NC(=O)[C@H](CCCNC(=N)N)NC(=O)[C@H](CC(C)C)NC(C)=O)C(=O)N[C@@H](CCCNC(=N)N)C(=O)N[C@@H](Cc1c[nH]cn1)C(=O)N[C@H](C(=O)N1CCC[C@H]1C(=O)N[C@@H](CCCNC(=N)N)C(N)=O)[C@@H](C)CC) [Ii-Key/one-ava/gp160(844-855)],Number (mean number of IFN-γ ELISPOT spots and standard deviation),splenic T cells [6],59 (+/−5)
same,Size (mean spot size and standard deviation),splenic T cells [6],0.028 (+/−0.006) mm^2
LMTFWNPPV [9.5.2],CTL induction,[4],induced vigorous anti-tumor CTL responses
same,binding to HLA alleles of the A2 supertype,[8],bound tightly
